Source: patent US20100056524A1, “Compound” (priority 2008, published 2010)
Counter-ions that a name gives are not always drawn. Like-named read-outs stand apart in the source and are kept apart here.

Experiments:
Assay type in all cases: biochemical
[1] = molecular target: T1, GSK3b (Homo sapiens, UniProt P49841); assay: GSK3b protein kinase assay; conditions: for remaining activity at 10 µM: 10 μM compound; for residual kinase activity GSK3b: 1 μm compound; for remaining activity at 1 µM: 1 μM compound
T1 construct: All protein kinases were of human origin and encoded full length proteins, unless indicated otherwise; made in house
T1 sequence (P49841 whole entry): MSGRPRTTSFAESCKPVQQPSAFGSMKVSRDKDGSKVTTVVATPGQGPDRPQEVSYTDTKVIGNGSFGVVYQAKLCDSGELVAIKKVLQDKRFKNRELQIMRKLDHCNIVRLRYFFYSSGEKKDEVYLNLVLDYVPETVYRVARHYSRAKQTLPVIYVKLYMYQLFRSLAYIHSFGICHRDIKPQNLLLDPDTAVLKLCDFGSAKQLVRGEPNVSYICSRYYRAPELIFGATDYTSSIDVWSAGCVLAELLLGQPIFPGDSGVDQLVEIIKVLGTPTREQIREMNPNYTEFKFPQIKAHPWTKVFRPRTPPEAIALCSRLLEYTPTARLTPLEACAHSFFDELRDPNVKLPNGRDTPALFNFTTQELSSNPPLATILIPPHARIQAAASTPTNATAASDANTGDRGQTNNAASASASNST
Source text: (§1) All protein kinases were of human origin and encoded full length proteins, unless indicated otherwise. They were either expressed as glutathione S-transferase (GST) fusion proteins in Escherichia Coli or as hexahistidine (His6)-tagged proteins in insect Sf21 cells. GST fusion proteins were purified by affinity chromatography on glutathione-Sepharose, and His6-tagged proteins on nickel/nitriloacetate-agarose. The procedures for expressing some of the protein kinases used herein have been detailed previously.^8,9 The following sections outline the DNA vectors synthesised and the procedures used to express and purifying protein kinases that have not been reported previously.
(§2) All assays (25.5 μl) were carried out at room temperature (21° C.) and were linear with respect to time and enzyme concentration under the conditions used. Assays were performed for 30 min using Multidrop Micro reagent dispensers (Thermo Electron Corporation, Waltham, Mass. 02454, USA) in a 96-well format. The concentration of magnesium acetate in the assays was 10 mM and the [γ-33P] ATP (800 cpm/pmol) was used at 5, 20 or 50 μM as indicated, in order to be at or below the Km for ATP for each enzyme. Protein kinases assayed at 5 μM ATP were: —ERK1, ERK8, PKBα, MARK3, Aurora C. Protein kinases assayed at 20 μM ATP were: —JNK1, PDK1, CHK1, CHK2, CDK2 and Aurora B. Protein kinases assayed at 50 μM ATP were: —MNK2, IKKepsilon and TBK1.
(§3) The assays were initiated with MgATP, stopped by addition of 5 μl of 0.5 M orthophosphoric acid and spotted on to P81 filterplates using a unifilter harvester (PerkinElmer, Boston, Mass. 02118, USA). The IC50 values of inhibitors were determined after carrying out assays at 10 different concentrations of each compound.
(§4) Unless stated otherwise, enzymes were diluted in 50 mM Tris/HCl pH 7.5, 0.1 mM EGTA, 1 mg/ml BSA, 0.1% (v/v) 2-mercaptoethanol and assayed in 50 mM Tris/HCl pH 7.5, 0.1 mM EGTA, 0.1% (v/v) 2-mercaptoethanol.

[2] = molecular target: T2, NEK2a (Homo sapiens, UniProt P51955); assay: NEK2a protein kinase assay; conditions: for remaining activity at 10 µM: 10 μM compound; for residual kinase activity NEK2a: 1 μm compound; for remaining activity at 1 µM: 1 μM compound
T2 construct: All protein kinases were of human origin and encoded full length proteins, unless indicated otherwise; made in house
T2 sequence (P51955 1-445): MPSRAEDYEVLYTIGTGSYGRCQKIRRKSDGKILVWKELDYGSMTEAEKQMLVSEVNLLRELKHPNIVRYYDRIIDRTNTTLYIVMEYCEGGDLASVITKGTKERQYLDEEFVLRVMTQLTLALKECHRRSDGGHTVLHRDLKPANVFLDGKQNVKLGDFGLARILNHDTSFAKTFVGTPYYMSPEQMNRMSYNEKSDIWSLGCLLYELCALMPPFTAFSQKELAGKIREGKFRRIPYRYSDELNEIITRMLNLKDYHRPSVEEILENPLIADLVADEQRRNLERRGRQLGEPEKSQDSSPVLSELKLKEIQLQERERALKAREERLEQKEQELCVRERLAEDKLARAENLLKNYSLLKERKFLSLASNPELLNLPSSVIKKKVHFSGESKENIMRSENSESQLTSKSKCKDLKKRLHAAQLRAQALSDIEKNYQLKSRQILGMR
Source text: as §1, §2, §3, §4

[3] = molecular target: T3, EPH A2 (Homo sapiens, UniProt P29317); assay: EPH A2 protein kinase assay; conditions: for remaining activity at 10 µM: 10 μM compound; for residual kinase activity EPH A2: 1 μm compound; for remaining activity at 1 µM: 1 μM compound
T3 construct: All protein kinases were of human origin and encoded full length proteins, unless indicated otherwise; made in house
T3 sequence (P29317 591-976 limits assumed): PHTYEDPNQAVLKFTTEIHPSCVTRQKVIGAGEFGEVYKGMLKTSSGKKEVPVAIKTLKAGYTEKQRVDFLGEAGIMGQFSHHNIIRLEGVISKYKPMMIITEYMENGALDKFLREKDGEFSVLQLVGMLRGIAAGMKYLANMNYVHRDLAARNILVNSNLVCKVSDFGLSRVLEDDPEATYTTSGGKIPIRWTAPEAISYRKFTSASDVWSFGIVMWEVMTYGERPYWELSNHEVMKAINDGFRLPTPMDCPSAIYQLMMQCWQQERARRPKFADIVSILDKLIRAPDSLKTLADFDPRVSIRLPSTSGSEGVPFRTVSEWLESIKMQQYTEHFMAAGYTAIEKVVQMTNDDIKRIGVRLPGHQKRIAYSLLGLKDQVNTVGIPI
Source text: as §1, §2, §3, §4

[4] = read-out: residual kinase activity GSK3b
[5] = read-out: residual kinase activity NEK2a
[6] = read-out: residual kinase activity EPH A2
[7] = GSK3b, read-out: residual kinase activity
[8] = NEK2a, read-out: residual kinase activity
[9] = EPH A2, read-out: residual kinase activity

Row | SMILES | remaining activity at 10 µM [1, 4] [%] | residual kinase activity GSK3b [1] [%] | remaining activity at 10 µM [2, 5] [%] | residual kinase activity NEK2a [2] [%] | remaining activity at 10 µM [3, 6] [%] | residual kinase activity EPH A2 [3] [%] | remaining activity at 1 µM [1, 7] [%] | remaining activity at 10 µM [1, 7] [%] | remaining activity at 1 µM [2, 8] [%] | remaining activity at 10 µM [2, 8] [%] | remaining activity at 1 µM [3, 9] [%] | remaining activity at 10 µM [3, 9] [%]
1 | O=C(NCCCNc1nc(Nc2cccc(F)c2)ncc1Br)C1CCC1 [Compound A, cyclobutanecarboxylic acid {3-[5-bromo-2-(3-fluoro-phenylamino)-pyrimidin-4-ylamino]-propyl}-amide, reference compound] | 4 | 23 | 57 | 95 | 60 | 87 | – | – | – | – | – | –
2 | O=C(NCCCNc1nc(Nc2cccc(F)c2)ncc1C1CC1)C1CCC1 [Example 23, Cyclobutanecarboxylic acid {3-[5-cyclopropyl-2-(3-fluoro-phenylamino)-pyrimidin-4-ylamino]-propyl}-amide] | 20 | 53 | 65 | 91 | 71 | 71 | 53 | 20 | 91 | 65 | 71 | 71
3 | O=C(NCCCNc1nc(Nc2cccc(N3CCCC3=O)c2)ncc1C1CC1)c1cccs1 [Example 47, Thiophene-2-carboxylic acid (3-{5-cyclopropyl-2-[3-(2-oxo-pyrrolidin-1-yl)-phenylamino]-pyrimidin-4-ylamino}-propyl)-amide. Hydrochloride salt] | – | – | – | – | – | – | 73 | 31 | 104 | 79 | 47 | 76
4 | O=C(NCCCNc1nc(Nc2cccnc2)ncc1C1CC1)c1cccs1 [Example 50, Thiophene-2-carboxylic acid {3-[5-cyclopropyl-2-(pyridin-3-ylamino)-pyrimidin-4-ylamino]-propyl}-amide] | – | – | – | – | – | – | 52 | 19 | 93 | 71 | 88 | 73
